# Target: Alpha-glucosidase (Saccharomyces cerevisiae S288c, UniProt P53341+P38158+P07265)
# Experiment: Inhibition of Saccharomyces cerevisiae alpha-glucosidase using nitrophenol-alpha-D-glucopyranoside (pNPG) as substrate incubated for 15 mins
# Assay type: protein assay
smiles,measurement,value
CN(C)c1ccc(/C=N/Nc2nnc3n2N=C(c2ccccc2)CS3)cc1,IC50,35.58 µM
Fc1ccc(/C=N/Nc2nnc3n2N=C(c2ccccc2)CS3)cc1,IC50,50.24 µM
Brc1ccccc1/C=N/Nc1nnc2n1N=C(c1ccccc1)CS2,IC50,32.12 µM
COc1ccc(/C=N/Nc2nnc3n2N=C(c2ccccc2)CS3)cc1,IC50,85.86 µM

# Source: ChEMBL document CHEMBL5634160, “Synthesis, biological evaluation and action mechanism of 7H-[1,2,4] triazolo [3,4-b] [1,3,4] thiadiazine-phenylhydrazone derivatives as α-glucosidase inhibitors” (Eur J Med Chem, 2023)
